According to patent publication US20220411759A1, “ENDOCRINE DIFFERENTIATION-INDUCING MOLECULE” (President and Fellows of Harvard College, priority 2019, published 2022):

Key:
[1] = test system: HUES8 human embryonic stem cells; test: Flow cytometry of cell proportions during directed differentiation of hESCs into β cells; type: cell-based
Procedure: (§1) HUES8 ([…]) human embryonic stem cells and human induced pluripotent stem cells (hiPSCs) from line 1016 (person) were obtained from the Human Embryonic Stem Cell Facility and iPS Core Facility of the Harvard Stem Cell Institute. Cells were differentiated into beta like cells in suspension as described previously^37. Briefly, 150Xe^6 cells were suspended in 300 ml of supplemented mTeSR1 and grown in spinning flasks (70 rpm, 37° C., 5% CO2) for 48 hours prior to the beginning of a stepwise differentiation protocol:
Stage 4—5 days in S3 medium supplemented with KGF (50 ng/ml), Sant1 (0.25 μM) and retinoic acid (0.1 μM).
Stage 5—7 days in BE5 medium supplemented with Beta Cellulin (20 ng/ml). XXI (1 μM), Alk5ill(10 μM) and T3 (1 μM). Sant1 (0.25 μM) was added in the first three days, and retinoic acid was added at 0.1 μM in the first three days, then at 0.025 μM.
Stage 6—CMRLS medium supplemented with Alk5iII (10 μM) and T3 (1 μM).
In many of the experiments following cell collection for sc-RNAseq, the protocol was slightly modified to add Y-27632 (10 μM) at stage 3-5, and ActivinA (5 ng/ml) in stage 4. In some cases, an extra day at stage 4 was also added. For the presented functional and flow cytometry analysis in stage 6, CMRLS based media was replaced with S3 medium, without supplements.
(§2) Factors were tested in either 6-well plates placed on a rocker, or in Biott ABLE Bioreactors (Stemgent). IWR1-endo (Sigma-Aldrich) was used at 5 μM. XAV939 (Santa Cruz, SC-296704A) was used at 5 μM. Recombinant human BMP2/BMP7 (Thermo-Fisher) was used at […]. when added during stage 4, CHIR99021 was used at a concentration of […].
Differentiated cell clusters were dispersed into single-cell suspension by incubation in TrypLE Express at 37° C., quenched with PBS+2% FBS, fixed with 4% PFA for 30 min at 4° C., washed once in PBS, and resuspended in PBS+2% FBS. Staining was done in 96-well plates. Cells were incubated in blocking buffer (PBS+0.1% Triton X-100+5% donkey serum) at 4° C. for 30-60 min. Cells were then re-suspended in blocking buffer with primary antibodies and incubated at room temperature for 1 hour or at 4° C. overnight. Cells were washed twice in blocking buffer and incubated in blocking buffer with secondary antibodies at 4° C. for 1 hour. Cells were then washed three times in PBS+5% Donkey serum and analyzed using either the BD Accuri c6 flow cytometer or the LSR-II flow cytometer (BD Biosciences). Analysis of the results was performed using FlowJo software.

[2] = test system: human induced pluripotent stem cells (hiPSCs) from line 1016; test: Flow cytometry of cell proportions during directed differentiation of hiPSC-1016; type: cell-based; conditions: stage 5
Procedure: as §1, §2
Differentiated cell clusters were dispersed into single-cell suspension by incubation in TrypLE Express at 37° C., quenched with PBS+2% FBS, fixed with 4% PFA for 30 min at 4° C., washed once in PBS, and resuspended in PBS+2% FBS. Staining was done in 96-well plates. Cells were incubated in blocking buffer (PBS+0.1% Triton X-100+5% donkey serum) at 4° C. for 30-60 min. […] Cells were then washed three times in PBS+5% Donkey serum and analyzed using either the BD Accuri c6 flow cytometer or the LSR-II flow cytometer (BD Biosciences). […]

[3] = test system: in vitro generated β cells; test: Glucose stimulated insulin secretion (GSIS) of stage 6 cells; type: cell-based, human
Procedure: Differentiated cells were washed twice in Krebs buffer (Krb) containing 2.8mM glucose, and then distributed into 24-well plates containing Millicell Cell culture inserts for easy transfer between conditions. Each well received 0.5 ml buffer with approximately 10^6 cells. After fasting in 2.8 mM glucose for 1 hour in 37° C., the analysis of the cells' response to changing glucose levels was performed by a series of 1 hour incubations in 37° C., in the following order: 1) 2.8 mM (low) glucose. 2) 20 mM (high) glucose. 3) brief wash in 2.8 mM glucose. 4) 1 hour incubation in 2.8 mM glucose. 5) 20 mM glucose. 6) 2.8 mM glucose with 30 mM KCL. At the end of each step (excluding the wash), the incubation buffer was collected and the amount of insulin secreted during the hour's incubation was determined using human insulin ELISA kit (ALPCO diagnostics; 80-INSHUU-E01.1). Clusters were then dispersed into single cells using TrypLE Express (Life Technologies), and cell number was counted automatically by a Vi-Cell (Beckman Coulter).

[4] = test system: differentiating hESC clusters; test: Nanostring mRNA expression of endocrine, hormone and progenitor markers in differentiating clusters; type: cell-based, human; conditions: treatment during both stages 4 and 5; relative to control
Procedure: as §2
Cells were collected for RNA extraction in RLT Lysis Buffer (Qiagen) and frozen at −80° C. RNA was extracted using the RNeasy Mini Kit (Qiagen), according the manufacturer's instructions—including DNA digestion, and 100 ng of RNA was used for each reaction. Nanostring set up was performed according to the protocol for the nCounter XT Gene Expression Assay. Data was analyzed in the nSolver 2.5 Software. All genes were normalized to housekeeping genes (ITCH, RPL15, RPL19, TCEB1, UBE2D3). Analysis of changes in gene expression of markers for endocrine and progenitor cells was done using R.

[5] = test system: differentiating hESC clusters; test: Cell concentration in differentiation batches during stage 6; type: cell-based, human; conditions: treatment during stage 5, vs control
Procedure: The relative changes in gene expression relative to control conditions are presented in log values, for two independent experiments. FIG. 9E provides cell concentration in the differentiation batches analyzed in FIG. 4H. […] Bars show the average±S.E. n, from left to right: 8 (7 for IWR), 6, 8, 7, 6. […] The bars show geometric mean±S.E. of the fold change in insulin secretion following the transition from low (2.8 mM) to high (20 mM) glucose levels. FIG. 9F provides fold change in insulin secretion after one stimulation with high glucose. From left to right: n=5,6,6,3; 2-way ANOVA on log(Fold insulin secretion): p-value=0.83 and 0.16 for differences caused by the treatment or the day of analysis, respectively. […]
Differentiated cells were washed twice in Krebs buffer (Krb) containing 2.8mM glucose, and then distributed into 24-well plates containing Millicell Cell culture inserts for easy transfer between conditions. […] At the end of each step (excluding the wash), the incubation buffer was collected and the amount of insulin secreted during the hour's incubation was determined using human insulin ELISA kit (ALPCO diagnostics; 80-INSHUU-E01.1). Clusters were then dispersed into single cells using TrypLE Express (Life Technologies), and cell number was counted automatically by a Vi-Cell (Beckman Coulter).

[6] = test system: differentiating hESC clusters; conditions: Activin A and Y-27632 given together during stage 4; cited from earlier work
[7] = factor added during stage 4, flow cytometry at end of stage 4, vs control
[8] = XXI removed from the media during stage 5, flow cytometry at end of stage 5, vs control with XXI

Molecule: Cc1c[nH]c(-c2cnc(NCCNc3ccc(C#N)cn3)nc2-c2ccc(Cl)cc2Cl)n1 [CHIR99021]
- number / proportion of CHGA+ endocrine cells [1, 7]: decreased

Molecule: O=C(Nc1cccc2cccnc12)c1ccc(N2C(=O)[C@@H]3[C@H](C2=O)[C@@H]2C=C[C@H]3C2)cc1 [IWR1-endo]
- proportion of hiPSC-1016 derived CHGA+ cells [2]: increases
- number / proportion of CHGA+ endocrine cells [1, 7]: significantly raised
- number / proportion of PDX1+/NKX6.1+ progenitors [1, 7]: reduced
- overall yield of in vitro generated β cells ([1]; treatment during stage 5, concluded from β cell proportion and cell numbers): increases
- increase in proportion of C-PEP+/NKX6.1+ β cells, on average, relative to controls ([1]; treatment during stage 5, flow cytometry at end of stage 5): more than 50%
- proportion of CHGA+ endocrine cells ([1]; treatment during stage 5, flow cytometry at end of stage 5, compared with the stage 4 effect): even higher relative increase
- insulin secretion in response to high glucose levels (first stimulation) ([3]; treatment during stage 5, 2.8 mM to 20 mM glucose): maintain their ability to secrete insulin
- insulin release on second stimulation with high glucose, compared to controls ([3]; treatment during stage 5, consecutive stimulations, 20 mM glucose): release less insulin in the second challenge
- expression of endocrine markers [4]: increased expression
- expression of progenitor markers [4]: downregulated
- overall cell numbers / cell concentration during stage 6 [5]: slightly increased
- overall cell numbers / cell concentration during stage 6 ([5]; listed as IWR): slightly higher

Molecule: C[C@H](NC(=O)Cc1cc(F)cc(F)c1)C(=O)N[C@H]1N=C(c2ccccc2)c2ccccc2N(C)C1=O [XXI]
- number of CPEP+NKX6.1+ β cells [1, 8]: dramatically reduced
- number of GLP2+ α cells [1, 8]: did not significantly affect

Molecule: C[C@@H](N)[C@H]1CC[C@H](C(=O)Nc2ccncc2)CC1 [Y-27632]
- appearance of buds on the clusters' surface [6]: induces

B1: Activin A: protein factor (R&D Systems) added to differentiation media (protein, UniProt P08476 311-426, looked up)
Inhibin beta A chain: GLECDGKVNICCKKQFFVSFKDIGWNDWIIAPSGYHANYCEGECPSHIAGTSGSSLSFHSTVINHYRMRGHSPFANLKSCCVPTKLRPMSMLYYDDGQNIIKKDIQNMIVEECGCS
modifications: Inhibin beta A chain
notes: protein factor (R&D Systems) added to differentiation media
- appearance of buds on the clusters' surface [6]: induces
